Measured values: US4820695A, “C-20-dihydro-deoxy-(cyclic amino)-derivatives of macrolide antibiotics” (priority 1987, dated 1989)
In brackets after ≈: the same amount, converted by molar mass. Like-named read-outs stand apart in the source and are kept apart here.

Experiments:
Pasteurella multocida [1] = test: Pasteurella infection in one-day-old chicks, medicated drinking water (Table XIII); format: in vivo; conditions: Administered in the available drinking water at 2 g/gal
Method: Many of the C-20 modified derivatives of this invention have also shown in vivo antibacterial activity against infections induced by gram-negative bacteria. Tables XII and XIII summarize the results of tests in which illustrative compounds were evaluated against a Pasteurella infection in one-day-old chicks. The compounds were administered parenterally or orally after challenge of the chicks with Pasteurella multocida (0.1 ml of a 10^-4 dilution of a twenty-hour tryptose broth culture of an avian P. multocida given subcutaneously). In these tests, unless indicated otherwise, all non-medicated infected chicks died within 24 hours of Pasteurella challenge. In the tests summarized in Table XII, the compounds were administered by subcutaneous injection at a dosage of 30 mg/kg, 1 and 4 hours post-challenge of the chicks with P. multocida. In the tests summarized in Table XIII the compounds were administered in medicated drinking water (at a level of 2 g/gal) available from 4 to 20 hours prior to challenge of the chicks with P. multocida and during the 3 -day test period.
^a Administered in the available drinking water at a concentration of […]

Klebsiella X26 = test: MIC, standard agar-dilution assay (Table IX); format: cell-based; conditions: read-out: MIC
Staphyloccus aureus X1.1 = test: MIC, standard agar-dilution assay (Table IX); format: cell-based, Staphylococcus aureus; conditions: Staphylococcus aureus, read-out: MIC
[2] = system: Streptococcus pyogenes C203; test: MIC, standard agar-dilution assay (Table IX); format: cell-based; conditions: read-out: MIC
[3] = system: Staphylococcus aureus X400; test: MIC, standard agar-dilution assay (Table IX); format: cell-based; conditions: Staphylococcus aureus X400, Methicillin-resistant strain, read-out: MIC
[4] = system: Staphylococcus aureus V41; test: MIC, standard agar-dilution assay (Table IX); format: cell-based; conditions: Staphylococcus aureus V41, Penicillin-resistant strain, read-out: MIC
[5] = system: Haemophilus influenzae C.L.; test: MIC, standard agar-dilution assay (Table IX); format: cell-based; conditions: Ampicillin-sensitive strain, read-out: MIC
Escherichia coli N10 = test: MIC, standard agar-dilution assay (Table IX); format: cell-based; conditions: read-out: MIC
Escherichia coli TEM = test: MIC, standard agar-dilution assay (Table IX); format: cell-based; conditions: read-out: MIC
[6] = system: Streptococcus pneumoniae Park I; test: MIC, standard agar-dilution assay (Table IX); format: cell-based; conditions: Streptococcus pneumoniae Park I; agar-dilution; read-out: MIC
Escherichia coli EC14 = test: MIC, standard agar-dilution assay (Table IX); format: cell-based; conditions: read-out: MIC
[7] = system: Haemophilus influenzae 76; test: MIC, standard agar-dilution assay (Table IX); format: cell-based; conditions: Haemophilus influenzae 76, Ampicillin-resistant strain, read-out: MIC
[8] = Titratable groups in 66% aqueous DMF (Tables XIV-XVI); format: physicochemical
Excerpt: ^c Run in 66% aqueous DMF
^d Run in 66% aqueous DMF

[9] = system: Staphylococcus aureus S13E; test: MIC, standard agar-dilution assay (Table IX); format: cell-based; conditions: Staphylococcus aureus, S13E
[10] = system: Staphylococcus epidermidis EPI1; test: MIC, standard agar-dilution assay (Table IX); format: cell-based; conditions: Staphylococcus epidermidis EPI1; agar-dilution; read-out: MIC
[11] = system: Streptococcus pyogenes C203; test: ED50 in mice experimentally infected with S. pyogenes C203 (Table XI); format: in vivo; conditions: Streptococcus pyogenes, doses given 1 and 4 hours postinfection, read-out: ED50
Outline: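 Mice infected with S. pyogenes C203 received two doses of compound, 1 and 4 h post-infection. ED50 is the dose in mg/kg (per dose, ×2) protecting 50% of animals.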

[12] = system: Streptococcus Group D X66; test: MIC, standard agar-dilution assay (Table IX); format: cell-based; conditions: read-out: MIC
Streptococcus sp. 19F = test: MIC, broth-dilution microtiter test (Table X); format: cell-based; conditions: read-out: MIC
Excerpt: (§1) The MIC's in Table X were obtained using conventional broth-dilution microtiter tests.

[13] = system: Mycoplasma gallisepticum 29C; test: MIC, broth-dilution microtiter test (Table X); format: cell-based; conditions: Mycoplasmoides gallisepticum, read-out: MIC
Excerpt: as §1

[14] = system: Mycoplasma hyopneumoniae S5972; test: MIC, broth-dilution microtiter test (Table X); format: cell-based; conditions: Mesomycoplasma hyopneumoniae, read-out: MIC
Excerpt: as §1

Mycoplasma hyorhinis 29E = test: MIC, broth-dilution microtiter test (Table X); format: cell-based; conditions: read-out: MIC
Excerpt: as §1

[15] = system: Pasteurella multocida 17E; test: MIC, broth-dilution microtiter test (Table X); format: cell-based; conditions: Bovine isolate, read-out: MIC
Excerpt: as §1

Mycoplasma synoviae 40A = test: MIC, broth-dilution microtiter test (Table X); format: cell-based; conditions: Mycoplasmopsis synoviae, read-out: MIC
Excerpt: as §1

[16] = system: Pasteurella hemolytica 22C; test: MIC, broth-dilution microtiter test (Table X); format: cell-based; conditions: read-out: MIC
Excerpt: as §1

Staphylococcus aureus = test: MIC, broth-dilution microtiter test (Table X); format: cell-based; conditions: read-out: MIC
Excerpt: as §1

[17] = system: Pasteurella multocida 60A; test: MIC, broth-dilution microtiter test (Table X); format: cell-based; conditions: Avian isolate, read-out: MIC
Excerpt: as §1

[18] = system: Streptococcus Group D 2041; test: MIC, standard agar-dilution assay (Table IX); format: cell-based; conditions: GROUPD2041, read-out: MIC
Pasteurella multocida [19] = test: Pasteurella infection in one-day-old chicks, subcutaneous administration (Table XII); format: in vivo; conditions: Administered subcutaneously, 30 mg/kg × 2, 1 and 4 hours post-challenge
Outline: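 One-day-old chicks were challenged subcutaneously with 0.1 ml of a 10^-4 dilution of a 20-h tryptose broth culture of avian P. multocida. Compounds were then given by subcutaneous injection at 30 mg/kg, at 1 and 4 hours post-challenge.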

[20] = system: Staphylococcus epidermidis 222; test: MIC, standard agar-dilution assay (Table IX); format: cell-based; conditions: read-out: MIC
[21] = system: Staphylococcus aureus 19C; test: MIC, broth-dilution microtiter test (Table X); format: cell-based
Excerpt: as §1

[22] = Titratable groups (first value)

SMILES | MIC (Klebsiella X26) [µg/mL] | MIC (Staphyloccus aureus X1.1) [µg/mL] | MIC [2] [µg/mL] | MIC [3] [µg/mL] | MIC [4] [µg/mL] | MIC [5] [µg/mL] | MIC (Escherichia coli N10) [µg/mL] | MIC (Escherichia coli TEM) [µg/mL] | MIC [6] [µg/mL] | MIC (Escherichia coli EC14) [µg/mL] | MIC [7] [µg/mL] | MIC [9] [µg/mL] | MIC [10] [µg/mL] | ED50 ([11]; C203, Oral) [mg/kg] | ED50 ([11]; C203, sc, Subcutaneous) [mg/kg] | MIC [12] [µg/mL] | MIC (Streptococcus sp. 19F) [µg/mL] | MIC [13] [µg/mL] | MIC [14] [µg/mL] | MIC (Mycoplasma hyorhinis 29E) [µg/mL] | further results
CCC1OC(=O)CC(O)C(C)C(OC2OC(C)C(O)C(N(C)C)C2O)C(CCN2CCCCCCCC2)CC(C)C(=O)C=CC(C)=CC1COC1OC(C)C(O)C(OC)C1OC (centres unmarked) [Compound D7, 20-DH-DO-20-(octahydro-1H-azonin-1-yl)desmycosin] | > 128 | 0.5 (≈ 0.566 µM) | 0.06 (≈ 0.0679 µM) | 0.5 (≈ 0.566 µM) | 0.5 (≈ 0.566 µM) | 16 (≈ 18.1 µM) | 64 (≈ 72.5 µM) | 16 (≈ 18.1 µM) | 0.5 (≈ 0.566 µM) | 64 (≈ 72.5 µM) | 16 (≈ 18.1 µM) | 0.5 (≈ 0.566 µM) | 0.5 (≈ 0.566 µM) | 12 | 1.6 | 4 (≈ 4.53 µM) | 3.12 (≈ 3.53 µM) | 0.39 (≈ 0.442 µM) | 1.56 (≈ 1.77 µM) | 25 (≈ 28.3 µM) | Number of Deaths/Number Treated (Pasteurella multocida [1]): 2/10; pKa ([8]; Titratable groups): 9; pKa [8, 22]: 7.9; MIC [15]: 6.25 µg/mL (≈ 7.08 µM); MIC (Mycoplasma synoviae 40A): 0.39 µg/mL (≈ 0.442 µM); MIC [16]: 3.12 µg/mL (≈ 3.53 µM); MIC (Staphylococcus aureus): 1.56 µg/mL (≈ 1.77 µM); MIC [17]: 6.25 µg/mL (≈ 7.08 µM); MIC [18]: 8 µg/mL (≈ 9.06 µM); Number of Deaths/Number Treated (Pasteurella multocida [19]): 3/10; MIC [20]: 0.25 µg/mL (≈ 0.283 µM)
CCC1OC(=O)CC(O)C(C)C(OC2OC(C)C(O)C(N(C)C)C2O)C(CCN2CCCC23CCCCC3)CC(C)C(=O)C=CC(C)=CC1COC1OC(C)C(O)C(OC)C1OC (centres unmarked) [Compound D19, 20-DH-DO-20-[1-Azaspiro[4.5]decan-1-yl]desmycosin] | 32 (≈ 35.7 µM) | 1 (≈ 1.12 µM) | 0.5 (≈ 0.559 µM) | 1 (≈ 1.12 µM) | 1 (≈ 1.12 µM) | 16 (≈ 17.9 µM) | 128 (≈ 143 µM) | 32 (≈ 35.7 µM) | 0.25 (≈ 0.279 µM) | 128 (≈ 143 µM) | 16 (≈ 17.9 µM) | 1 (≈ 1.12 µM) | 1 (≈ 1.12 µM) | 46 | 2.9 | 16 (≈ 17.9 µM) | 3.12 (≈ 3.49 µM) | 1.56 (≈ 1.74 µM) | 3.12 (≈ 3.49 µM) | > 50 | Number of Deaths/Number Treated (Pasteurella multocida [1]): 3/10; pKa ([8]; Titratable groups): 9.8; pKa [8, 22]: 7.9; MIC [15]: 3.12 µg/mL (≈ 3.49 µM); MIC (Mycoplasma synoviae 40A): 0.39 µg/mL (≈ 0.436 µM); MIC [16]: 3.12 µg/mL (≈ 3.49 µM); MIC (Staphylococcus aureus): 0.78 µg/mL (≈ 0.871 µM); MIC [17]: 3.12 µg/mL (≈ 3.49 µM); MIC [18]: 16 µg/mL (≈ 17.9 µM); Number of Deaths/Number Treated (Pasteurella multocida [19]): 0/10; MIC [20]: 0.25 µg/mL (≈ 0.279 µM)
CCC1OC(=O)CC(O)C(C)C(OC2OC(C)C(O)C(N(C)C)C2O)C(CCN2CCC3CCCCC3C2)CC(C)C(=O)C=CC(C)=CC1COC1OC(C)C(O)C(OC)C1OC (centres unmarked) [Compound D29, 20-DH-DO-20-(decahydroisoquinolin-2-yl)desmycosin] | 32 (≈ 35.7 µM) | 0.5 (≈ 0.559 µM) | 0.5 (≈ 0.559 µM) | 0.5 (≈ 0.559 µM) | 0.5 (≈ 0.559 µM) | 4 (≈ 4.47 µM) | 64 (≈ 71.5 µM) | 16 (≈ 17.9 µM) | 0.5 (≈ 0.559 µM) | 64 (≈ 71.5 µM) | 4 (≈ 4.47 µM) | 0.5 (≈ 0.559 µM) | 0.5 (≈ 0.559 µM) | 10.3 | 1.56 | 2 (≈ 2.23 µM) | 1.56 (≈ 1.74 µM) | 0.195 (≈ 0.218 µM) | 0.195 (≈ 0.218 µM) | 6.25 (≈ 6.98 µM) | MIC [21]: 1.56 µg/mL (≈ 1.74 µM); MIC [15]: 3.12 µg/mL (≈ 3.49 µM); MIC (Mycoplasma synoviae 40A): < 0.048 µg/mL; MIC [16]: 6.25 µg/mL (≈ 6.98 µM); MIC [17]: 6.25 µg/mL (≈ 6.98 µM); MIC [18]: 8 µg/mL (≈ 8.94 µM); MIC [20]: 0.125 µg/mL (≈ 0.14 µM)
CCC1OC(=O)CC(O)C(C)C(OC2OC(C)C(O)C(N(C)C)C2O)C(CCN2C(C)CCCC2C)CC(C)C(=O)C=CC(C)=CC1COC1OC(C)C(O)C(OC)C1OC (centres unmarked) [Compound D41] | 128 (≈ 147 µM) | 8 (≈ 9.2 µM) | 1 (≈ 1.15 µM) | 8 (≈ 9.2 µM) | 8 (≈ 9.2 µM) | 64 (≈ 73.6 µM) | > 128 | > 128 | 1 (≈ 1.15 µM) | > 128 | 64 (≈ 73.6 µM) | 8 (≈ 9.2 µM) | 8 (≈ 9.2 µM) | > 100 | 2.04 | 32 (≈ 36.8 µM) | 6.25 (≈ 7.19 µM) | 6.25 (≈ 7.19 µM) | 3.12 (≈ 3.59 µM) | 50 (≈ 57.5 µM) | MIC [21]: 6.25 µg/mL (≈ 7.19 µM); MIC [15]: 25 µg/mL (≈ 28.8 µM); MIC (Mycoplasma synoviae 40A): 1.56 µg/mL (≈ 1.79 µM); MIC [16]: > 50 µg/mL; MIC [17]: 50 µg/mL (≈ 57.5 µM); MIC [18]: 32 µg/mL (≈ 36.8 µM); MIC [20]: 2 µg/mL (≈ 2.3 µM)
